This is an account of results in ChEMBL document CHEMBL1759979, “Impact of aryloxy-linked quinazolines: a novel series of selective VEGFR-2 receptor tyrosine kinase inhibitors” (Bioorg Med Chem Lett, 2011).

As usually defined, the IC50 is the concentration needed to halve the response being measured.

Experiment [1] is described as follows: Antiproliferative activity against human EAhy926 cells after 72 hrs by MTS assay. It counts as functional, EA.hy 926. Details: concentration or dose not given beside the values.
Experiment [2] deals with HT-29. The experiment in a line: Antiproliferative activity against human HT-29 cells after 72 hrs by MTS assay. It counts as functional. The arrangement: concentration or dose not given beside the values. In general terms: Tetrazolium assays rely on reduction of a dye to a coloured formazan, in cell work by metabolically active cells.
For experiment [3], the system named is MCF7. The experiment is described as follows: Antiproliferative activity against human MCF7 cells after 72 hrs by MTS assay. The format is functional. Details: concentration or dose not given beside the values.
Experiment [4] relates to PC-3. The experiment in a line: Antiproliferative activity against human PC3 cells after 72 hrs by MTS assay. It counts as functional. The arrangement: concentration or dose not given beside the values.
In experiment [5] the target is T1, Vascular endothelial growth factor receptor 2 (Homo sapiens, UniProt P35968). The experiment in a line: Inhibition of recombinant human VEGFR-2-mediated poly(Glu4Tyr) phosphorylation after 1 hr.
For experiment [6], the target named is Epidermal growth factor receptor (Homo sapiens, UniProt P00533). The experiment is described as follows: Inhibition of human EGFR-mediated poly(Glu4Tyr) phosphorylation after 1 hr.
The subject of experiment [7] is HT-29. The experiment in a line: Antiproliferative activity against human HT-29 cells at 10 uM after 72 hrs by MTS assay. The format is functional, cell-based. To be noted: HT-29, 72 h.
The test system of experiment [8] is PC-3. The experiment is described as follows: Antiproliferative activity against human PC3 cells at 10 uM after 72 hrs by MTS assay. The format is functional, cell-based. To be noted: PC-3, 72 h.
Experiment [9] can be described thus: Antiproliferative activity against human EAhy926 cells at 10 uM after 72 hrs by MTS assay. The format is functional, cell-based. The following applies: EA.hy 926, 72 h.
Experiment [10] has as its system MCF7. The experiment is described as follows: Antiproliferative activity against human MCF7 cells at 10 uM after 72 hrs by MTS assay. The following applies: MCF7, 72 h.
Experiment [11] has as its target T1, Vascular endothelial growth factor receptor 2. The experiment in a line: Inhibition of KDR.

T1 sequence (P35968 whole entry): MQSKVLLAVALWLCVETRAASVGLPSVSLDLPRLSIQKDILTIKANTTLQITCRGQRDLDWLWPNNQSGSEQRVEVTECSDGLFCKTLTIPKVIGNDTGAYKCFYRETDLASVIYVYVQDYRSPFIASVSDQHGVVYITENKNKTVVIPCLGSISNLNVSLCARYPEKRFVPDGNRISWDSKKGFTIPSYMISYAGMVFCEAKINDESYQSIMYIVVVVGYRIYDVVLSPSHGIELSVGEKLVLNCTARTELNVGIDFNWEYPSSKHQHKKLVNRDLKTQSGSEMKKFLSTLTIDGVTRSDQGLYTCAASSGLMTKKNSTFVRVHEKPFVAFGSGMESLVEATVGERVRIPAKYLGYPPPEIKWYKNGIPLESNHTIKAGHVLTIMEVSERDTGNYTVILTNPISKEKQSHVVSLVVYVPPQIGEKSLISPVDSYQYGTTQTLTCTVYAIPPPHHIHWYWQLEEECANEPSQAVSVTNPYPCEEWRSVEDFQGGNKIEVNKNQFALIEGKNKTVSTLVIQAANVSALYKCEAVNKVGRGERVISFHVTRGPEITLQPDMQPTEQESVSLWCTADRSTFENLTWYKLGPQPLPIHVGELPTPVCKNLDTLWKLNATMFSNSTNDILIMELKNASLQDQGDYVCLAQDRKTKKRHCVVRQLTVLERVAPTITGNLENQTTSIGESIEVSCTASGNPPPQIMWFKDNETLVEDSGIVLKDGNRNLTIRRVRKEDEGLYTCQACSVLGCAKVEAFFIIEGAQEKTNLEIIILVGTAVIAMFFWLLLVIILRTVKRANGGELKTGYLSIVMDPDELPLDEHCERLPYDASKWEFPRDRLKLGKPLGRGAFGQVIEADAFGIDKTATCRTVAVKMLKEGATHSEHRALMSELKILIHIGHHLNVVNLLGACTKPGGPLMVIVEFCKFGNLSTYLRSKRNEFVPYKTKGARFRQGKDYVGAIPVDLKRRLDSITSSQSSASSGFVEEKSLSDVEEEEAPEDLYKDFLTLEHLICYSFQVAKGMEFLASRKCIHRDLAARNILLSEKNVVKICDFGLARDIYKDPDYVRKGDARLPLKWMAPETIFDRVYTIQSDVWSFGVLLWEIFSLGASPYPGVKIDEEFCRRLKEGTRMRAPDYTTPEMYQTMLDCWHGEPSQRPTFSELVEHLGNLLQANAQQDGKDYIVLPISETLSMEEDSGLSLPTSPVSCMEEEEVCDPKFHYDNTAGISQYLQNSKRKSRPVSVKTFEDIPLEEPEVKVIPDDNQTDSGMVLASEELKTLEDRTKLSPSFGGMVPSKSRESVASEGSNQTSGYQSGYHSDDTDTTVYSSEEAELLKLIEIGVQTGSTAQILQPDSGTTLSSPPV
Sequence of Epidermal growth factor receptor (P00533 whole entry): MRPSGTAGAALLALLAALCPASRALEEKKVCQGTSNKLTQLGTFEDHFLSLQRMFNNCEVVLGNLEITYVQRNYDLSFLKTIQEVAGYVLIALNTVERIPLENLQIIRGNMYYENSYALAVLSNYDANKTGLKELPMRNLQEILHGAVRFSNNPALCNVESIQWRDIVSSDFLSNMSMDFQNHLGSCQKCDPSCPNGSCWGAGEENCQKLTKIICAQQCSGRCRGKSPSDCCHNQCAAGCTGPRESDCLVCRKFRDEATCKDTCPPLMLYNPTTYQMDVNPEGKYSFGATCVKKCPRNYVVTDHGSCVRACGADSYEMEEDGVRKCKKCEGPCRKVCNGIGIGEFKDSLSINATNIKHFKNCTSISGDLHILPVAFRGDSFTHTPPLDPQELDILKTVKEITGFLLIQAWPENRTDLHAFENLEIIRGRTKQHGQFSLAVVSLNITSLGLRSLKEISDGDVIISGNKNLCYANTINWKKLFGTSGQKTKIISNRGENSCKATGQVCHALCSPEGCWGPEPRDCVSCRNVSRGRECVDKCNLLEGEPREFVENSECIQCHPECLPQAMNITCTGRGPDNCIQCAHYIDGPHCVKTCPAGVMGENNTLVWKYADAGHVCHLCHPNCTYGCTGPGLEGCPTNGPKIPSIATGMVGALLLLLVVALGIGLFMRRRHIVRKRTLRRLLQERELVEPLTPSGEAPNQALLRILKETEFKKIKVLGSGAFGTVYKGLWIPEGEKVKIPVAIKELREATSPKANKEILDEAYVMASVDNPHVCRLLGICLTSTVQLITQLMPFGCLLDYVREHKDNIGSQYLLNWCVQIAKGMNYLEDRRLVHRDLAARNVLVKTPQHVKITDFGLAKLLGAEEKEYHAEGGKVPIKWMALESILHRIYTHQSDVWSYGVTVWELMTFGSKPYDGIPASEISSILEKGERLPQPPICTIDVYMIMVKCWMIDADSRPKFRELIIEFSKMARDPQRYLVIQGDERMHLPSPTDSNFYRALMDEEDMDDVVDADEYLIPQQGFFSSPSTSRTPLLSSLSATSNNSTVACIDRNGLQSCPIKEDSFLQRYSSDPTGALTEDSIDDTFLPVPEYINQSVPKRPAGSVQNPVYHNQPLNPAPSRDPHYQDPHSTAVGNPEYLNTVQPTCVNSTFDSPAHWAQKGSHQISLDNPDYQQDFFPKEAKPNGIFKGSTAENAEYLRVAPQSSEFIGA

Take `COc1cc2ncnc(N(C)c3cccc(NC(=O)Nc4ccccc4)c3)c2cc1OC`: the Activity (in experiment [1]; with HT-29 [2]; in the experiment on MCF7 [3]; in the experiment on PC-3 [4]) was 0% each time.
Consider `COc1ccc(NC(=O)Nc2cccc(N(C)c3ncnc4cc(OC)c(OC)cc34)c2)cc1`, for which the Activity (in experiment [1]; in the experiment on HT-29 [2]; in the experiment on MCF7 [3]; in the experiment with PC-3 [4]) was 0% throughout.
Turning to `COc1cc2ncnc(Oc3ccc(NC(=O)Nc4ccccc4)cc3)c2cc1OC`, the Activity is 15% in experiment [1], 12% with HT-29 [2], 12% in the experiment with MCF7 [3] and 23% in the experiment with PC-3 [4]. Moreover, the figures for the IC50 in experiment [5] and in [6] were 0.06 µM and greater than 10 µM, respectively.
`COc1cc2ncnc(Oc3cccc(NC(=O)Nc4ccccc4)c3)c2cc1OC`: in experiment [6], the IC50 was greater than 10 µM.
For the molecule `COc1ccc(NC(=O)Nc2cccc(Oc3ncnc4cc(OC)c(OC)cc34)c2)cc1`, the IC50 in experiment [6] is greater than 10 µM.
As for `COc1cc2ncnc(Nc3ccc(Br)cc3F)c2cc1OC`, the Activity in experiment [1] is given as 0%; in the experiment with HT-29 [2], 0%; with MCF7 [3], 31%; in the experiment with PC-3 [4], 1%. Further, the IC50 in experiment [5] stood at 1.65 µM; in [6] it was 5.7 µM.
As for `COc1cc2ncnc(N(C)c3ccc(F)c(Cl)c3)c2cc1OC`, the IC50 is 5.2 µM in the experiment on HT-29 [7], greater than 10 µM in [5] and greater than 10 µM in experiment [6]. The values for the Activity (in experiment [1]; in the experiment with MCF7 [3]; with PC-3 [4]) were 46%, 0% and 22%, respectively.
On to `COc1cc2ncnc(N(C)c3ccc(Br)cc3F)c2cc1OC`, for which the Activity in [1] stood at 0%; in the experiment with HT-29 [2] it was 14%; in the experiment on MCF7 [3], 0%; with PC-3 [4], 15%. Moreover, the IC50 in experiment [5] and in experiment [6] was greater than 10 µM each time.
For `COc1cc2ncnc(Oc3ccc(F)c(Cl)c3)c2cc1OC`, the figures for the IC50 (with HT-29 [7]; in experiment [5]; in experiment [6]) were 4.07 µM, 9.5 µM and greater than 10 µM, respectively. The Activity in the experiment with MCF7 [3] is given as 0%; in the experiment on PC-3 [4] it was 5%.
In the case of `COc1cc2ncnc(Oc3ccc(Br)c(F)c3)c2cc1OC`, the midpoint of inhibition in [6], the IC50, lay at 5.9 µM.
On to `COc1cc2ncnc(Nc3ccc(NC(C)=O)cc3)c2cc1OC`, for which the Activity in experiment [1] is listed as 0%; with HT-29 [2], 0%; in the experiment on MCF7 [3], 12%; in the experiment with PC-3 [4], 2%. Besides, the IC50 in experiment [5] and in experiment [6] was greater than 10 µM each time.
As to `COc1cc2ncnc(Oc3ccc(NC(C)=O)cc3)c2cc1OC`, the Activity in [1] is listed as 3%; in the experiment on HT-29 [2], 0%; in the experiment on MCF7 [3], 5%; with PC-3 [4] it was 0%.
Take `COC(=O)Nc1ccc(Nc2ncnc3cc(OC)c(OC)cc23)cc1`: the Activity in [1] came to 0%; in the experiment with HT-29 [2], 10%; with MCF7 [3], 27%; with PC-3 [4], 2%. The IC50 in [5] was 5.8 µM.
`COC(=O)Nc1ccc(Oc2ncnc3cc(OC)c(OC)cc23)cc1`: in experiment [6], the IC50 was greater than 10 µM.
Take `CCOC(=O)Nc1ccc(Nc2ncnc3cc(OC)c(OC)cc23)cc1`: the Activity in [1] is reported as 0%; in the experiment on HT-29 [2], 16%; in the experiment with MCF7 [3], 6%; in the experiment on PC-3 [4] it was 12%. The IC50 was 5.6 µM in experiment [5] and greater than 10 µM in [6].
As to `CCOC(=O)Nc1ccc(Oc2ncnc3cc(OC)c(OC)cc23)cc1`, the IC50 in [6] was greater than 10 µM.
`COc1cc2ncnc(Nc3ccc(NC(=O)Nc4ccccc4)cc3)c2cc1OC` showed an IC50 in experiment [6] greater than 10 µM.
In experiment [6], `COc1ccc(NC(=O)Nc2ccc(Nc3ncnc4cc(OC)c(OC)cc34)cc2)cc1` displayed an IC50 greater than 10 µM.
Consider `CCCCNC(=O)Nc1ccc(Oc2ncnc3cc(OC)c(OC)cc23)cc1`, for which, in experiment [6], the IC50 is greater than 10 µM.
Turning to `COc1cc2ncnc(Oc3ccc(NC(=O)Nc4ccc(Br)cc4)cc3)c2cc1OC`, the IC50 in [6] was greater than 10 µM.
For the molecule `COc1cc2ncnc(Oc3ccc(NC(=O)Nc4ccc(F)cc4F)cc3)c2cc1OC`, the IC50 in [6] was greater than 10 µM.
Take `COc1cc2ncnc(Oc3ccc(NC(=O)Nc4ccc(F)c(Cl)c4)cc3)c2cc1OC`: the IC50 in experiment [6] is greater than 10 µM.
`COc1cc2ncnc(Oc3ccc(NC(=O)Nc4ccc(C(F)(F)F)cc4)cc3)c2cc1OC` displayed an IC50 in [6] greater than 10 µM.
`COc1cc2ncnc(Oc3ccc(NC(=O)Nc4ccc(C)cc4)cc3)c2cc1OC`: the Activity in experiment [1] came out at 42%; in the experiment with HT-29 [2] it was 17%; in the experiment on MCF7 [3] it was 23%; with PC-3 [4] it was 23%. In experiment [6], this molecule came in with an IC50 greater than 10 µM.
Molecule `COc1cc2ncnc(Oc3ccc(NC(=O)Nc4ccc5ccccc5c4)cc3)c2cc1OC` yielded a half-maximal inhibitory concentration (IC50) in experiment [6] greater than 10 µM.
With `COc1cc2ncnc(Oc3ccc(NC(=O)Nc4cccc5ccccc45)cc3)c2cc1OC`, the Activity in experiment [1] is recorded as 9%; with HT-29 [2], 17%; in the experiment on MCF7 [3], 8%; in the experiment with PC-3 [4], 8%. This molecule yielded an IC50 in experiment [6] greater than 10 µM.
Consider `COc1cc2ncnc(Nc3ccc(NC(=O)Nc4ccc(F)c(Cl)c4)cc3)c2cc1OC`, for which the IC50 in the experiment with HT-29 [7] was 6.2 µM; in the experiment on PC-3 [8], 9.4 µM; in [9], 5.3 µM; in the experiment with MCF7 [10] it was 7.7 µM; in [5] it was 4.3 µM; in [6] it was greater than 10 µM.
On to `COc1cc2ncnc(N(C)c3ccc(NC(=O)Nc4ccc(F)c(Cl)c4)cc3)c2cc1OC`, for which the values for the Activity (in experiment [1]; with MCF7 [3]) were 29% and 35%, respectively. The IC50 in experiment [5] and in experiment [6] was greater than 10 µM throughout.
On to `COc1ccc(NC(=O)Nc2ccc(Oc3ncnc4cc(OC)c(OC)cc34)cc2)cc1`, for which the Activity came to 24% in experiment [1], 9% with HT-29 [2], 0% in the experiment with MCF7 [3] and 12% in the experiment on PC-3 [4]. In addition, the IC50 was 0.07 µM in [5], greater than 10 µM in experiment [6] and 0.07 µM in experiment [11].
Molecule `COc1cc2ncnc(Oc3ccc(NC(=O)NC4CCCCC4)cc3)c2cc1OC` registered an IC50 in experiment [6] greater than 10 µM.
On to `COc1cc2ncnc(Nc3cccc(Br)c3)c2cc1OC`, for which, in [9], half-maximal inhibition (IC50) required 7.1 µM. Also, the Activity in the experiment on PC-3 [4] was determined as 40%.
With `COc1cc2ncnc(Nc3ccc(F)c(Cl)c3)c2cc1OC`, the IC50 with HT-29 [7] was 5.7 µM; in the experiment with PC-3 [8] it was 6.5 µM; in experiment [9] it was 4.5 µM; in the experiment on MCF7 [10] it was 4.9 µM; in experiment [5] it was 5.3 µM.
Take `COc1cc2ncnc(Oc3cccc(Br)c3)c2cc1OC`: the Activity in experiment [1] is 0%; with HT-29 [2], 6%; in the experiment on MCF7 [3] it was 0%; in the experiment on PC-3 [4] it was 27%. This molecule also came in with an IC50 in experiment [6] of 7.6 µM.
For `COc1cc2/c(=N/c3ccc(Br)cc3F)nc[nH]c2cc1OCC1CCN(C)CC1` [VANDETANIB], the results for the IC50 (in the experiment on HT-29 [7]; in [9]) were 4.2 µM and 5.1 µM, respectively. Besides, the Activity turned out to be 26% in the experiment with MCF7 [3] and 33% in the experiment with PC-3 [4].
